Legend:
mung bean cuttings = assay: rooting of mung bean cuttings (number of adventitious roots per cutting); type: in vivo; conditions: for rooting of mung bean cuttings (number of roots per cutting): 50 μM
How it was run: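 Readout was the number of adventitious roots per cutting in mung bean cuttings. Conjugates of 4-CPA, MCPA and 2-DP were tested alongside unconjugated IBA and 2-DP–glycine methyl ester.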

[1] = system: cuttings from mature Eucalyptus grandis trees; assay: rooting of cuttings from mature Eucalyptus grandis trees; type: in vivo
How it was run: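 Cuttings (12-15 cm, two upper leaves halved) from branches of 8-year-old net-house plants; bases dipped 1 min in 6000 ppm IBA potassium salt plus 50 μM conjugate, leaves sprayed with 50 μM conjugate in 0.5% Triton X-100. Rooted at 25° C, 90% humidity, peat:vermiculite:polystyrene 1:2:3; rooting scored after 30-60 days.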

[2] = system: cuttings from mature Eucalyptus grandis trees; conditions: literature value for this model (Abu-Abied et al. 2012); cited from earlier work
[3] = system: avocado rootstock cuttings; assay: rooting of avocado rootstock cuttings; type: in vivo
How it was run: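 Green cuttings of avocado rootstock (including hard-to-root VC801) were treated with auxin conjugates in the presence of IBA and scored for rooting.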

[4] = system: Eucalyptus x trabutii cuttings; assay: rooting of Eucalyptus x trabutii cuttings; type: in vivo; conditions: K-IBA alone or with 100 μM compound
Procedure: (§1) In order to investigate cloning of productive eucalyptus trees from cuttings, branches were excised from mature Eucalyptus x trabutii and Eucalyptus brachyphylla trees the field (in Kfar Pines, Israel)—selected based on their exceptional nectar production and honeybee attraction—placed in a humidified cooler box and brought to a climate-controlled greenhouse within 2 hours. Each cutting, 7 cm long, included three nodes with only two leaves remaining at its apical end. Two-thirds of each blade was excised to minimize evapotranspiration. The cutting bases were submerged for 1 minute in 6 grams/liter indole-3-butyric acid potassium salt (K-IBA), optionally supplemented with Compound 1s or 1t at a concentration of 100 μM. In addition, the leaves were sprayed with 100 μM of each compound in the presence of 0.05% Triton X-100 surfactant. Stock solutions of Compounds 1s and 1t were at a concentration of 100 mM in DMSO. The cuttings were planted in rooting medium containing peat, vermiculite and polystyrene flakes at a ratio of 1:2:3 respectively, on a heated rooting table under 90% humidity. Fungicides were applied to the rooting media on a weekly basis. Rooting percentage, number of roots per cutting and root length were measured after 1 and 2 weeks and after 1 and 2 months.

[5] = system: argan (Argania spinosa) cuttings; assay: rooting of argan cuttings; type: in vivo; conditions: after 1.5 months; compound with IBA, or IBA control
Procedure: The ability of exemplary conjugates to promote rooting in plants which are recalcitrant to rooting (in addition to the results obtained with Eucalyptus grandis in Example 3) was examined using cuttings of argan (Argania spinosa) and jojoba (Simmondsia chinensis) in a commercial nursery (Shorashim). The argan and jojoba cuttings were treated with 100 μM of a conjugate (any of Compounds 10-1t) with 6000 ppm IBA. The common treatment T-8 (talc with 8000 ppm IBA and a fungicide) or 6000 ppm IBA (without conjugate) served as a control.
Exemplary conjugates were also tested for rooting the hard-to-root species of avocado (VC801 rootstock) and argan, according to procedures described hereinabove.

[6] = system: Eucalyptus brachyphylla cuttings; assay: rooting of Eucalyptus brachyphylla cuttings; type: in vivo; conditions: K-IBA alone or with 100 μM compound
Procedure: as §1

Arabidopsis seedlings [7] = assay: root elongation inhibition in Arabidopsis seedlings; type: in vivo; conditions: for effect on root elongation relative to control, in words: after 5 days
Procedure: (§2) Adventitious roots (ARs) were induced in intact plants, using previously described procedures [Gutierrez et al., Plant Cell 2009, 21:3119-3132; Abu-Abied et al., Plant J 2012, 71:787-799; Rasmussen et al., Plant Physiol 2012, 158:1976-1987]. Briefly, seeds were germinated on MS/0.8% agar plates supplemented with 3% sucrose. The plates were kept in the dark for 2 days at 4° C., then 5 days at 22° C. in the dark, 2 days in the light, 3 days in the dark and then additional 4 days in the light to complete 2 weeks when roots were counted using a stereoscope. Sensitivity to auxin and/or auxin analogs was determined by following root elongation on vertical plates. The 4-day-old seedlings were transferred to MS plates containing 0.05 or 0.5 μM IAA and the root length was measured after 5 days, including the number of LRs in each root and calculation of the LR density. Each treatment experiment included 10-15 plants and was repeated 3 times.
A common technique for evaluating auxin activity is by determining the ability of a compound to inhibit root elongation [Zolman et al., Genetics 2000, 156:1323-1337]. In order to use this assay for comparing auxin activities of different conjugates, the minimum concentration of free 4-CPA that is active in the root elongation inhibition assay was determined. Four days old seedlings were placed in vertical plates containing increasing concentrations of 4-CPA. The root lengths were marked daily during 5 days.
Based on the above results, the effect of conjugates of 4-CPA (Compounds 1o-1t) on root elongation after 5 days was determined at concentrations of 50 nM.

Arabidopsis seedlings [8] = assay: adventitious root formation in intact etiolated Arabidopsis seedlings; type: in vivo; conditions: intact etiolated seedlings; 50 nM, FIG. 17 legend 10 μM for one hour
Procedure: as §2
In a third assay utilizing an Arabidopsis model, induction of adventitious root AR formation in intact plants was examined in the presence of 50 nM of tested compounds, which included 5 days incubation in the dark, followed by a shift to the light, according to procedures described by Sorin et al. [Plant Cell 2005, 17:1343-1359].
Conjugates prepared as described herein were evaluated in an Arabidopsis rooting model, according to procedures such as described hereinabove. Seeds were germinated and kept in the dark for 4 days. The etiolated seedlings were then incubated for 1 hour in 10 μM of each compound and then transferred to vertical MS medium-containing plates.

DR5:venus marker = assay: auxin activity by DR5:venus fluorescence in Arabidopsis plants; type: in vivo; conditions: 10 μM
Procedure: Imaging was performed using an SP8 Leica confocal microscope including solid-state lasers producing 405, 488, 514 and 552 nm light, and hybrid or PMT detectors. Objectives were either PL APO 20×/0.75, WD 0.62 mm or PL APO 63×/1.2 WD 0.3 mm. For fluorescence measurements, the Imaris™ spot detection option (Bitplane A.G.) was used to segment nuclei and calculate the average signal intensity.
One technique for assessing auxin activity of the 4-CPA amino acid conjugates utilized plants expressing nucleus-localized, fluorescent DR5:venus marker, the expression level of which is an indicator of intracellular auxin activity [Laskowski et al., PLoS Biol 2008, 6:e307]. Four days old seedlings grown on regular MS medium were transferred to plates containing 10 μM of the tested compounds and fluorescence was inspected by confocal microscope after 24 hours.
In order to assess the ability of the abovementioned sodium salts to penetrate the cells and activate an auxin response, an Arabidopsis DR5-Venus model was utilized (as described hereinabove). The plants were exposed to 10 μM of each compound for 24 hour; MS medium was used as a negative control, and the related Compounds 1p, 1r and 1t were used as positive controls.

[9] = system: cuttings from mature Eucalyptus grandis trees; assay: rooting of cuttings from mature Eucalyptus grandis trees; type: in vivo; conditions: 100 μM compound by submerging or spraying, with 6000 ppm IBA
Arabidopsis seedlings [10] = assay: split petri dish assay, separate shoot or root application in etiolated Arabidopsis seedlings; type: in vivo; conditions: 10 μM
Description: The observation that AR enhancement in Eucalyptus cuttings was higher when 4-CPA conjugates were applied also to the leaves (as described in Example 3) prompted further investigation into the functions of shoot-derived 4-CPA. To this end, 4-CPA or Compounds 1p and it were applied specifically to roots or shoots of five-day old etiolated Arabidopsis seedlings using a split petri dish (as depicted in FIG. 26) and the effect on root elongation, lateral root (LR) formation and adventitious root (AR) formation was evaluated.
Arabidopsis plants were germinated and grown in the dark for 5 days, then then transferred to petri dishes with a partition in the middle. Each half of these plates contained either medium alone or with 10 μM of 4-CPA or Compound 1p or 1tl. The etiolated seedlings were put on the plates with their collet region on the partition such that either the hypocotyl and cotyledons, or the root or both were in touch with the medium containing the tested compound. Adventitious roots and lateral roots were counted and the length of the primary root was measured after a week.

[11] = system: transgenic citrus rootstocks; assay: rooting of transgenic citrus rootstocks in tissue culture; type: in vivo; conditions: 0% without compound, data not shown
Description: Compound 82 was also used to induce rooting of transgenic citrus rootstocks in tissue culture. It is well known that shoots created in tissue culture conditions following genetic modifications are typically difficult to root. Using Compound 82, 60% rooting was obtained, as compared to 0% without Compound 82 (data not shown).

cannabis clone = assay: rooting of a difficult to root cannabis clone; type: in vivo; conditions: 6000 ppm IBA with 50 μM compound for 1 minute; 2 weeks; vs IBA alone
Procedure: Cannabis is usually an easy to root plant. […] A relatively difficult to root cannabis clone was treated with 6000 ppm IBA or with a similar treatment combined with 50 μM of Compound 82 (4-CPA-L-Trp sodium salt) for 1 minute. Rooting was scored after 2 weeks.

O=C(O)CCCc1c[nH]c2ccccc12 [IBA, indole-3-butyric acid, reference compound]
rooting of mung bean cuttings (number of roots per cutting) (mung bean cuttings; Table 1, water control 29.6): 81.0
rooting of mung bean cuttings (number of roots per cutting) (mung bean cuttings; Table 2): 101
percentage of cuttings which exhibited rooting, stand-alone treatment ([1]; 100 μM conjugate without IBA, or 28 mM (6000 ppm) IBA alone, submerging base or spraying, scored after 45-60 days): 12%
rooting of cuttings, repeated experiment in a different season ([1]; Example 12 repeat: 6000 ppm IBA with 50 μM conjugate, or IBA control): 10%
root development in the presence of IBA potassium salt [2]: 5-15%
rooting of VC801 avocado cuttings ([3]; VC801 rootstock, conjugate, or IBA control): about 35%
rooting rate of etiolated avocado branches ([3]; vc51 rootstock, IBA): 80%
rooting rate of green avocado branches ([3]; vc51 rootstock, IBA): 10%
mean root number per cutting, E. x trabutii [4]: about 5
rooting in argan clone YM3 [5]: 50%
roots per cutting in argan clone YM3 [5]: 2-3
mean root number per cutting, E. brachyphylla [6]: about 4
effect on root elongation relative to control, in words (Arabidopsis seedlings [7]; 50 nM): no apparent inhibitory effect on root elongation
concentration required to inhibit root elongation (Arabidopsis seedlings [7]; 4 day old seedlings, 5 days on vertical plates): 1 to 10 µM

COC(=O)[C@@H](NC(=O)COc1ccc(Cl)cc1)C(C)C [Compound 1p, 4-CPA-L-Val]
effect on AR formation in mung bean cuttings, in words (mung bean cuttings; tested at 2, 10 or 50 μM): induced rooting only at low concentrations
percentage of adventitious root formation (rooting) ([1]; 6000 ppm IBA and 100 μM conjugate by submersion of base plus spraying of foliage): 51±8%
appearance of the roots compared with IBA alone ([1]; 6000 ppm IBA with 100 μM compound, submersion and spraying): appeared more branched
adventitious roots formed on average (Arabidopsis seedlings [8]): 7±1.4
effect on root tip and root elongation zone (DR5:venus marker): loss of auxin activity at the root tip, and swelling of the root elongation zone
rooting in combination with IBA compared with IBA alone, in words [9]: at least as potent as that of their corresponding D-amino acid conjugates
effect on root growth of application to the shoot compared with application directly to the root (Arabidopsis seedlings [10]; 24 hours on split dish): even stronger
adventitious root formation, exposure of shoots compared to exposure of roots (Arabidopsis seedlings [10]; split dish): significantly more adventitious root formation
lateral root formation, shoot application compared with root application (Arabidopsis seedlings [10]; split dish): inhibited lateral root formation more efficiently than application to roots
effect on root elongation relative to control, in words (Arabidopsis seedlings [7]; 50 nM): inhibited root elongation relative to control
time course of root elongation inhibition (Arabidopsis seedlings [7]; 50 nM, slight inhibition until day 3, complete from day 4): biphasic behavior

O=C(COc1ccc(Cl)cc1)N[C@@H](Cc1c[nH]c2ccccc12)C(=O)[O-].[Na+] [Compound 82, 4-CPA-L-Trp sodium salt]
rooting of transgenic citrus rootstocks [11]: 60%
number of roots in cannabis, in words (cannabis clone): significant increase in number of roots
rooting percentage in cannabis, in words (cannabis clone): small increase in the rooting percentage
root architecture / root length of VC801 avocado cuttings compared to IBA control, in words ([3]; VC801 rootstock): considerably increased root length
DR5 fluorescence (auxin activity), in words (DR5:venus marker): about as active as their non-water soluble methyl esters
rooting in argan clone YM3 [5]: 80%
roots per cutting in argan clone YM3 [5]: about 7

Reference: US20220030866A1, “CONJUGATES OF AUXIN ANALOGS” (The State of Israel, Ministry of Agriculture & Rural …, priority 2019, published 2022)
